Test [1] concerns Calpain activity in SH-SY5Y cells. The experiment in a line: SH-SY5Y + AMC fluorescence assay (Suc-LLVY-AMC substrate). The test is classed as cell-based. Particulars: read-out: SH-SY5Y + AMC IC50.
The target in test [2] is T1, Human Calpain 1/NS1 (Homo sapiens, UniProt P07384).
T1 sequence (P07384 1-714): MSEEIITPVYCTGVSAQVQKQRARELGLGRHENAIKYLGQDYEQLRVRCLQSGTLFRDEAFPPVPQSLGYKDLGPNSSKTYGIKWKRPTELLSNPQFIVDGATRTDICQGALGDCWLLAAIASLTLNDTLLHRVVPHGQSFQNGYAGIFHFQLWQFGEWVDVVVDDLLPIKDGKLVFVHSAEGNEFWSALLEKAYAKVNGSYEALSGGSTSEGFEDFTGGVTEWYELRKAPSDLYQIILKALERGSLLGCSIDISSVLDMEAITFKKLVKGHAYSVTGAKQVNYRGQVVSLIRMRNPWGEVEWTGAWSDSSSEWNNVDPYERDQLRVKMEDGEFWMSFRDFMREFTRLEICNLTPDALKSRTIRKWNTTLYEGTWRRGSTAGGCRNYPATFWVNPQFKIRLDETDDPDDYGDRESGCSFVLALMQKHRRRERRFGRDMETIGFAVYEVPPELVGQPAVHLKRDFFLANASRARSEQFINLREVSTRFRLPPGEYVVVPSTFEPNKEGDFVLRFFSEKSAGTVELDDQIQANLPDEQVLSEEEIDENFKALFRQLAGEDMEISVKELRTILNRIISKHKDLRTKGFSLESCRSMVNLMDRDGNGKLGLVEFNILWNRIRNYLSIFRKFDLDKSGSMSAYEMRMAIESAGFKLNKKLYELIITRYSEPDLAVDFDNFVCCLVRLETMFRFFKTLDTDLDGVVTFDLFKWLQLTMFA
T1 sequence (P04632 1-268 partner): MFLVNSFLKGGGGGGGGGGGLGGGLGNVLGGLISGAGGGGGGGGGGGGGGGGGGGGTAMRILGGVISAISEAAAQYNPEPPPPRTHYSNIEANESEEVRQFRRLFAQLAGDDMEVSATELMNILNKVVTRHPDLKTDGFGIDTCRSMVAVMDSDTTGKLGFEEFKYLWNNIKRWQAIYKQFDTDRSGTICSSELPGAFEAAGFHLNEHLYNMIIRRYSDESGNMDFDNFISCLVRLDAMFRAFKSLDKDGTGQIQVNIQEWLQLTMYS
The experiment in a line: Calpain inhibition continuous fluorescence (FRET) assay, Human Calpain 1/NS1. It counts as biochemical. Particulars: read-out: Human Calpain 1/NS1 IC50. The method in brief:
(§1)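 Fluorescence increase from the cleaved 5-FAM/QXL 520 substrate, read at 490/520 nm, gave activity. Calcium was supplied with the substrate to activate the enzyme in situ after a 25C enzyme-inhibitor preincubation, and IC50s were fit from initial slopes.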

Test [3] relates to Calpain activity in SH-SY5Y cells (SBDP-150). The experiment in a line: SH-SY5Y Spectrin western blot assay (SBDP-150 breakdown product, A23187-induced). It counts as cell-based. The settings on record: Homo sapiens, SH-SY5Y cells, read-out: SH-SY5Y Spectrin IC50. In general terms: A western blot detects proteins with antibodies after separation by electrophoresis.
The target of test [4] is T2, Human Calpain 9/NS1 (Homo sapiens, UniProt O14815).
T2 sequence (O14815 1-690): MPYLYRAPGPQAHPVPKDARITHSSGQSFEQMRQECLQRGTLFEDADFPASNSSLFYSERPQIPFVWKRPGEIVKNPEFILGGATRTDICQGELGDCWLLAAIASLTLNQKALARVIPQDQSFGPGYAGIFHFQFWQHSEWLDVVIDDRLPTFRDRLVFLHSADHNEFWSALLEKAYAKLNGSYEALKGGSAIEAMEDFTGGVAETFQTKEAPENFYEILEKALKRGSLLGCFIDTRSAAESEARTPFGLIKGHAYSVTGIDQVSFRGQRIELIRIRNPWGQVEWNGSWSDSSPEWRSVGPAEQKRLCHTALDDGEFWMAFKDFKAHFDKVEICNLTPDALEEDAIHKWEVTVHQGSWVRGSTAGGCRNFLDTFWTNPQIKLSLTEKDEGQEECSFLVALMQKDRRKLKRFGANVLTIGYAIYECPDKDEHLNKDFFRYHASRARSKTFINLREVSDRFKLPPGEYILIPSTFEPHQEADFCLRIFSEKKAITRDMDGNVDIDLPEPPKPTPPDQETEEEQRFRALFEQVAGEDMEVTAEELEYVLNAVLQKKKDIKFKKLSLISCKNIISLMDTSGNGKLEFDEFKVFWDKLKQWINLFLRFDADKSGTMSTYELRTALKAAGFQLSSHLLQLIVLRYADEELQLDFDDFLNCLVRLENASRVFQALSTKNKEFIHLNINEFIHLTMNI
T2 sequence (P04632 1-268 partner): T1 sequence (P04632 1-268 partner)
The experiment in a line: Calpain inhibition continuous fluorescence (FRET) assay, Human Calpain 9/NS1. The settings on record: read-out: Human Calpain 9/NS1 IC50. The test is classed as biochemical. The method in brief:
as §1

[5] abbreviates: A23187-induced SBDP-150, western blot.
[6] abbreviates: Column D, A23187-induced SBDP-150.

Read-outs that look alike come from different tables or passages of the source.

`Cc1nc(-c2cccc(F)c2)c(C(=O)NC(Cc2ccccc2)C(=O)C(N)=O)o1` (stereo not drawn) [Compound 404, N-(4-amino-3,4-dioxo-1-phenylbutan-2-yl)-4-(3-fluorophenyl)-2-methyloxazole-5-carboxamide]: the IC50 in test [1] is < 10 µM; in test [2] it was < 3 µM; in test [3] (setting [5]) it was < 10 µM; in test [4], < 3 µM.

Take `Cn1cc(C(=O)NC(Cc2ccccc2)C(=O)C(N)=O)c(-c2ccccc2F)n1` (stereo not drawn) [Compound 484, N-(4-amino-3,4-dioxo-1-phenylbutan-2-yl)-3-(2-fluorophenyl)-1-methyl-1H-pyrazole-4-carboxamide]: the IC50 is < 10 µM in test [1], < 3 µM in test [2], 10 to 25 µM in test [3] (setting [5]) and < 3 µM in test [4].

With `Cc1nc(-c2ccccc2)c(C(=O)NC(Cc2ccccc2)C(=O)C(N)=O)o1` (stereo not drawn) [Compound 357, N-(4-amino-3,4-dioxo-1-phenylbutan-2-yl)-2-methyl-4-phenyloxazole-5-carboxamide], the IC50 in test [1] is < 10 µM; in test [2] it was < 3 µM; in test [3] (setting [5]), < 10 µM; in test [4], < 3 µM.

Consider `NC(=O)C(=O)[C@H](Cc1ccccc1)NC(=O)c1cn(C2CC2)nc1-c1ccccc1` [Compound 250, (S)—N-(4-amino-3,4-dioxo-1-phenylbutan-2-yl)-1-cyclopropyl-3-phenyl-1H-pyrazole-4-carboxamide], for which the IC50 in test [1] (Column E) was 10 to 25 µM; in test [2] (Column A), < 3 µM; in test [3] (setting [6]), 10 to 25 µM; in test [4] (Column C), < 3 µM.

For the compound `Cn1cc(C(=O)N[C@@H](Cc2ccccc2)C(=O)C(N)=O)c(-c2ccccc2)n1` [Compound 32, (S)—N-(4-amino-3,4-dioxo-1-phenylbutan-2-yl)-1-methyl-3-phenyl-1H-pyrazole-4-carboxamide], the IC50 in test [1] (Column E) is > 25 µM; in test [2] (Column A) it was < 3 µM; in test [3] (setting [6]), < 10 µM; in test [4] (Column C), < 3 µM.

With `CCCC[C@H](NC(=O)c1oc(C)nc1-c1ccccc1)C(=O)C(N)=O` [Compound 265, (S)—N-(1-amino-1,2-dioxoheptan-3-yl)-2-methyl-4-phenyloxazole-5-carboxamide], the IC50 in test [1] (Column E) was > 25 µM; in test [2] (Column A), < 3 µM; in test [3] (setting [6]), < 10 µM; in test [4] (Column C), < 3 µM.

Turning to `Cc1cc(C(=O)NC(Cc2ccccc2)C(=O)C(N)=O)n(-c2ccccn2)n1` (stereo not drawn) [Compound 495, N-(4-amino-3,4-dioxo-1-phenylbutan-2-yl)-3-methyl-1-(pyridin-2-yl)-1H-pyrazole-5-carboxamide], the IC50 in test [1] is < 10 µM; in test [2], < 3 µM; in test [3] (setting [5]), 10 to 25 µM; in test [4], < 3 µM.

Regarding `Cl.Cn1cc(C(=O)NC(Cc2ccccc2)C(=O)C(N)=O)c(-c2cccc(F)c2)n1` (stereo not drawn) [Compound 485, N-(4-amino-3,4-dioxo-1-phenylbutan-2-yl)-3-(3-fluorophenyl)-1-methyl-1H-pyrazole-4-carboxamide hydrochloride], the IC50 in test [1] was 10 to 25 µM; in test [2], < 3 µM; in test [3] (setting [5]), 10 to 25 µM; in test [4], < 3 µM.

For `NC(=O)C(=O)C(Cc1ccccc1)NC(=O)c1cn(C(F)F)nc1-c1ccccc1` (stereo not drawn) [Compound 403, N-(4-amino-3,4-dioxo-1-phenylbutan-2-yl)-1-(difluoromethyl)-3-phenyl-1H-pyrazole-4-carboxamide], the IC50 was < 10 µM in test [1], < 3 µM in test [2], < 10 µM in test [3] (setting [5]) and < 3 µM in test [4].

On to `NC(=O)C(=O)[C@H](Cc1ccccc1)NC(=O)c1cnoc1-c1ccccc1` [Compound 60, (S)—N-(4-amino-3,4-dioxo-1-phenylbutan-2-yl)-5-phenylisoxazole-4-carboxamide], for which the IC50 was < 10 µM in test [1] (Column E), < 3 µM in test [2] (Column A), < 10 µM in test [3] (setting [6]) and < 3 µM in test [4] (Column C).

On to `NC(=O)C(=O)C(Cc1ccccc1)NC(=O)c1cn(C2CC2)nc1-c1ccccc1` (stereo not drawn) [Compound 406, N-(4-amino-3,4-dioxo-1-phenylbutan-2-yl)-1-cyclopropyl-3-phenyl-1H-pyrazole-4-carboxamide], for which the IC50 was < 10 µM in test [1], < 3 µM in test [2], 10 to 25 µM in test [3] (setting [5]) and < 3 µM in test [4].

As to `Cc1nc(-c2ccccc2F)c(C(=O)NC(Cc2ccccc2)C(=O)C(N)=O)o1` (stereo not drawn) [Compound 405, N-(4-amino-3,4-dioxo-1-phenylbutan-2-yl)-4-(2-fluorophenyl)-2-methyloxazole-5-carboxamide], the IC50 in test [2] and in test [4] was < 3 µM throughout.

Turning to `NC(=O)C(=O)[C@H](Cc1ccccc1)NC(=O)c1nsnc1-c1ccccc1` [Compound 72, (S)—N-(4-amino-3,4-dioxo-1-phenylbutan-2-yl)-4-phenyl-1,2,5-thiadiazole-3-carboxamide], the IC50 in test [1] (Column E) was < 10 µM; in test [2] (Column A), < 3 µM; in test [3] (setting [6]), < 10 µM; in test [4] (Column C) it was < 3 µM.

Turning to `NC(=O)C(=O)[C@H](Cc1ccccc1)NC(=O)c1snnc1-c1ccccc1` [Compound 44, (S)—N-(4-amino-3,4-dioxo-1-phenylbutan-2-yl)-4-phenyl-1,2,3-thiadiazole-5-carboxamide], the IC50 in test [1] (Column E) was > 25 µM; in test [2] (Column A), < 3 µM; in test [3] (setting [6]) it was 10 to 25 µM; in test [4] (Column C), < 3 µM.
